Each structure is given as a SMILES string.

The values below come from US10189773B2, “In-vivo gelling pharmaceutical pre-formulation” (MEDICUS BIOSCIENCES, LLC, priority 2010, dated 2019).

This data set is described as follows: Saturated solution of DDP or DCP in phosphate and borate buffers. Format: physicochemical. Conditions: 25° C. The source says:
Samples containing DDP or DCP were protected from light as a precaution.

Consider `N.N.O=C([O-])C1(C(=O)[O-])CCC1.[Pt+2]` [DCP, cis-Diammine(1,1-cyclobutanedicarboxylato)platinum(II)], for which the “final concentration of saturated solution” value runs as follows: (borate buffer (pH of 7.94)) 15.6 mg/mL; (phosphate buffer) 14.7 mg/mL.
On the same counts, the results for `N.N.[Cl][Pt][Cl]` [DDP, cisdiamminedichloroplatinum(II)] are 1.3 mg/mL and 1.3 mg/mL.
